Values joined by “and” are separate entries in the source; they are usually repeats but may differ in a detail not shown here. Identical values can stand only once. Like-named read-outs stand apart in the source and are kept apart here.
Assays:
METΔex14‐mutated NSCLC [1] = tested on: METΔex14‐mutated NSCLC
[2] = single agent; Japanese patients with advanced solid tumors; cited from earlier work
METΔex14‐mutated NSCLC [3] = conditions: global population, cited from earlier work
GEOMETRY mono-1: safety = assay type: in vivo, human
[4] = 1L group, the one patient with PR
[5] = 2/3L, cohort 1a GCN ≥ 10 (n = 11)
[6] = 2/3L, cohort 1b GCN ≥ 6 to <10 (n = 1)
[7] = 2/3L, cohort 2 GCN ≥ 4 to <6 (n = 10)

CNC(=O)c1ccc(-c2cnc3ncc(Cc4ccc5ncccc5c4)n3n2)cc1F [capmatinib, Capmatinib]
Best overall response: CR (METΔex14‐mutated NSCLC [1]; 1L group (cohort 5b, n = 2)): 0 n (%) of patients
Best overall response: Non‐CR/non‐PD (METΔex14‐mutated NSCLC [1]; 1L group (cohort 5b, n = 2)): 0 n (%) of patients
Best overall response: PD (METΔex14‐mutated NSCLC [1]; 1L group (cohort 5b, n = 2)): 0 n (%) of patients
Best overall response: PR (METΔex14‐mutated NSCLC [1]; 1L group (cohort 5b, n = 2)): 1 (50.0) n (%) of patients
Best overall response: SD (METΔex14‐mutated NSCLC [1]; 1L group (cohort 5b, n = 2)): 1 (50.0) n (%) of patients
Best overall response: Unknown (METΔex14‐mutated NSCLC [1]; 1L group (cohort 5b, n = 2)): 0 n (%) of patients
DOR (METΔex14‐mutated NSCLC [1]; [4]): 4.24 months
Decrease in lesion size (METΔex14‐mutated NSCLC [1]; [4]): 76.5%
Time to confirmed PD after starting capmatinib (METΔex14‐mutated NSCLC [1]; [4]): 168 days and 5.5 months
DCR (BIRC) (METΔex14‐mutated NSCLC [1]; 2/3L group (cohort 4)): 81.8%
Median PFS (BIRC) (METΔex14‐mutated NSCLC [1]; 2/3L group (cohort 4)): 4.70 months
ORR (BIRC) (METΔex14‐mutated NSCLC [1]; 2/3L group (cohort 4)): 36.4%
Best overall response: CR (METΔex14‐mutated NSCLC [1]; 2/3L group (cohort 4, n = 11)): 0 n (%) of patients
Best overall response: Non‐CR/non‐PD (METΔex14‐mutated NSCLC [1]; 2/3L group (cohort 4, n = 11)): 0 n (%) of patients
Best overall response: PD (METΔex14‐mutated NSCLC [1]; 2/3L group (cohort 4, n = 11)): 1 (9.1) n (%) of patients
Best overall response: PR (METΔex14‐mutated NSCLC [1]; 2/3L group (cohort 4, n = 11)): 4 (36.4) n (%) of patients
Best overall response: SD (METΔex14‐mutated NSCLC [1]; 2/3L group (cohort 4, n = 11)): 5 (45.5) n (%) of patients
Best overall response: Unknown (METΔex14‐mutated NSCLC [1]; 2/3L group (cohort 4, n = 11)): 1 (9.1) n (%) of patients
Median DOR (95% CI) (METΔex14‐mutated NSCLC [1]; 2/3L group (cohort 4, n = 11)): NE (3.35–NE)
Median TTR (95% CI) (METΔex14‐mutated NSCLC [1]; 2/3L group (cohort 4, n = 11)): NE (1.38–NE)
Probability estimate at 3 mo for TTR (95% CI) (METΔex14‐mutated NSCLC [1]; 2/3L group (cohort 4, n = 11)): 36.4 (15.5‐70.3)
Tumor shrinkage, deep response (METΔex14‐mutated NSCLC [1]; 2/3L group, a patient with PR): ~ 80%
Brain response per independent neuroradiologist review (METΔex14‐mutated NSCLC [1]; 2/3L group, one patient with brain metastases, CT 12 weeks after starting capmatinib): partial resolution of brain lesions
Tumor shrinkage, deep response (METΔex14‐mutated NSCLC [1]; one patient in each group (1L and 2/3L)): ~ 80%
Median DOR (MET‐amplified NSCLC; 1L, cohort 5a GCN ≥ 10): 8.2 months
ORR (BIRC) (MET‐amplified NSCLC; 1L, cohort 5a GCN ≥ 10 (n = 2)): 100%
Median DOR (MET‐amplified NSCLC; 2/3L, cohort 1a GCN ≥ 10): 8.3 months
DCR (BIRC) (MET‐amplified NSCLC; [5]): 81.8%
ORR (BIRC) (MET‐amplified NSCLC; [5]): 45.5%
DCR (BIRC) (MET‐amplified NSCLC; [6]): 100.0%
ORR (BIRC) (MET‐amplified NSCLC; [6]): 0%
Median DOR (MET‐amplified NSCLC; 2/3L, cohort 2 GCN ≥ 4 to <6): 9.7
DCR (BIRC) (MET‐amplified NSCLC; [7]): 50.0%
ORR (BIRC) (MET‐amplified NSCLC; [7]): 10%
DCR (BIRC) (MET‐amplified NSCLC; 2/3L, cohort 3 GCN < 4 (n = 6)): 66.7%
ORR (BIRC) (MET‐amplified NSCLC; 2/3L, cohort 3 GCN < 4 (n = 6)): 16.7%
Maximum tolerated dose [2]: not identified
ORR by BIRC (METΔex14‐mutated NSCLC [3]; first‐line, 28 patients): 68%
Median DOR in responders (METΔex14‐mutated NSCLC [3]; first‐line): 12.6 months
Intracranial responses, share of patients (METΔex14‐mutated NSCLC [3]; patients with evaluable brain metastases at baseline): about half
ORR by BIRC (METΔex14‐mutated NSCLC [3]; second‐/third‐line, 69 patients): 41%
Tumor shrinkage (METΔex14‐mutated NSCLC [3]; second‐/third‐line, in two patients): > 90%
Median DOR in responders (METΔex14‐mutated NSCLC [3]; second‐/third‐line): 9.7 months
Treatment‐related AE: Nausea (GEOMETRY mono-1: safety; 45 Japanese patients): 35.6%
Treatment‐related AE: Oedema peripheral (GEOMETRY mono-1: safety; 45 Japanese patients): 31.1%
Treatment‐related AE: blood creatinine increased (GEOMETRY mono-1: safety; 45 Japanese patients): 53.3%
Capmatinib interrupted due to AEs (GEOMETRY mono-1: safety; METΔex14 1L group (n = 2)): both
Discontinuation from treatment phase, reason: Adverse event (GEOMETRY mono-1: safety; METΔex14 1L group (n = 2)): 1 (50.0) n (%) of patients
Capmatinib interrupted due to AEs (GEOMETRY mono-1: safety; METΔex14 2/3L group (n = 11)): 10 patients
Discontinuation from treatment phase, reason: Adverse event (GEOMETRY mono-1: safety; METΔex14 2/3L group (n = 11)): 3 (27.3) n (%) of patients
Dose reductions due to AEs (GEOMETRY mono-1: safety; METΔex14 2/3L group (n = 11)): eight
AEs leading to permanent discontinuation (GEOMETRY mono-1: safety; all patients (n = 45)): 8 (17.8) n (%) of patients
AEs requiring dose adjustment/interruption (GEOMETRY mono-1: safety; all patients (n = 45)): 30 (66.7) n (%) of patients
Any AE (GEOMETRY mono-1: safety; all patients (n = 45)): 45 (100.0) n (%) of patients
Any grade 3/4 AE (GEOMETRY mono-1: safety; all patients (n = 45)): 33 (73.3) n (%) of patients
Any grade 3/4 serious AE (GEOMETRY mono-1: safety; all patients (n = 45)): 18 (40.0) n (%) of patients
Any serious AE (GEOMETRY mono-1: safety; all patients (n = 45)): 22 (48.9) n (%) of patients
Any treatment‐related grade 3/4 serious AE (GEOMETRY mono-1: safety; all patients (n = 45)): 9 (20.0) n (%) of patients
Any treatment‐related serious AE (GEOMETRY mono-1: safety; all patients (n = 45)): 12 (26.7) n (%) of patients
Grade 3/4 AEs leading to permanent discontinuation (GEOMETRY mono-1: safety; all patients (n = 45)): 4 (8.9) n (%) of patients
Grade 3/4 AEs requiring dose adjustment/interruption (GEOMETRY mono-1: safety; all patients (n = 45)): 22 (48.9) n (%) of patients
Any grade 3/4 treatment‐related AE (GEOMETRY mono-1: safety; all patients (n = 45), Table 4): 25 (55.6) n (%) of patients
Any treatment‐related AE (GEOMETRY mono-1: safety; all patients (n = 45), Table 4): 44 (97.8) n (%) of patients
Deaths (GEOMETRY mono-1: safety; all patients (n = 45), considered related to NSCLC): 1 (2.2) n (%) of patients
